The target in this test is T1, NikA (Escherichia coli, UniProt P33590).
T1 construct: wild type NikA, purified from periplasm (56 304 Da)
The test can be described thus: isothermal titration calorimetry, one-site model. The format is binding. (In general: In ITC the heat of successive injections is recorded.)

Molecules are shown by their SMILES.

T1 sequence (P33590 23-524): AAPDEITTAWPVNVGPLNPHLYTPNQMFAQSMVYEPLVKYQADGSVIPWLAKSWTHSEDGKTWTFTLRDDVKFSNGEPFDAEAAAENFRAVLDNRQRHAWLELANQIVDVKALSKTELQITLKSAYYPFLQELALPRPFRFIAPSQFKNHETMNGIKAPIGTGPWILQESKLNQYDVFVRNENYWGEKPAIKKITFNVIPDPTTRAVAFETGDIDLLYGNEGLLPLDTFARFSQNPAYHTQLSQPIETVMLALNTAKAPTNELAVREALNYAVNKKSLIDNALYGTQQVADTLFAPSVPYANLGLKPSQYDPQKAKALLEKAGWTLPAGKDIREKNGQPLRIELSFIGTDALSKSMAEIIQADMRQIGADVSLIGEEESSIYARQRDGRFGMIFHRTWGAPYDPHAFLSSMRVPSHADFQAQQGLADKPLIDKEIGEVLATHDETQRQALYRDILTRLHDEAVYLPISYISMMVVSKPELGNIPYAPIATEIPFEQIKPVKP

Broadly, the Kd is the free concentration of one partner at which half of the binding sites on the other are occupied at equilibrium, for simple one-to-one binding. In the case of `O=C([O-])CN(CCN(CC(=O)[O-])CC(=O)O)CC(=O)[O-].[In+3]` [In(III)-EDTA], the Kd was determined as 17.3 ± 3 µM.

In turn, `O=C([O-])CN(CCN(CC(=O)[O-])CC(=O)O)CC(=O)[O-].[Fe+3]` [Fe(III)-EDTA] came in with a Kd of 7.4 ± 0.7 µM.
